Kd data for six compounds are collected here from paper PMC9481563, “Structural insights into the pSer/pThr dependent regulation of the SHP2 tyrosine phosphatase in insulin and CD28 signaling” (Nature Communications, 2022).

This experiment deals with T1, SHP2 catalytic domain (219–528), C459S, wild-type (inactive) (Homo sapiens, UniProt Q06124, C459S).
T1 construct: SHP2 catalytic domains (219–528 with or without C459S) were sub-cloned into pBH4 vectors; His6 (N); made in house; host or cells: E. coli BL21 (DE3)
T1 sequence (Q06124 219-528 C459S): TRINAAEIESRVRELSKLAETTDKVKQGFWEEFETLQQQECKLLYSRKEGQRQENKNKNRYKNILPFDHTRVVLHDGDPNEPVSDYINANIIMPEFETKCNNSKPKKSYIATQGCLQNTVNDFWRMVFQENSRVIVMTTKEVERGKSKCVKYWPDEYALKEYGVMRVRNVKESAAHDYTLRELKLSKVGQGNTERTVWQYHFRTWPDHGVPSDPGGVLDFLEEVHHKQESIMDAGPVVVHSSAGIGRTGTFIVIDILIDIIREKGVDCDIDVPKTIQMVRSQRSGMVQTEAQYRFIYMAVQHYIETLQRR
The experiment in a line: Fluorescence polarization titrations, inactive SHP2 catalytic domain. It counts as binding. Particulars: competitive FP titration vs CF-ppIRS1 100 nM, protein fixed, unlabelled peptide varied; n = 3 technical replicates. An excerpt: The two SH2 domains of PI3KR1 (UniProt P27986; nSH2: 321−433 cSH2: 614–724) were cloned from HEK293T cDNA pool, and subsequently ligated into a modified pET vector encoding maltose binding protein (MBP) tag on the N-terminal and a hexa-His tag on the C-terminal end of the construct. Similarly, the catalytic, tyrosine phosphatase domains of PTPRε (P23469 first domain: 107–399) and PTP1B (P18031; 1–229) were cloned from a HEK293T cDNA pool, and inserted into a pBH4 vector encoding an N-terminal His6 tag (for the final binding experiments, an MBP-tagged version of PTPRε was employed). […] Wild-type C-terminal FLAG-tagged human IRS1 was cloned between HindIII-NotI sites of pcDNA3.1(+) vector (#V79020 Invitrogen, Waltham MA USA). Ser/Ala mutant IRS1 was generated by replacing the region of S616/S636/S666/S736 positions with a cassette carrying S616A/S636A/S666A/S736A mutations. All constructs were validated by complete Sanger sequencing before protein expression and purification. The oligonucleotide sequences used are shown on Supplementary table 4.
Fluorescence polarization was always measured in triplicates, on black Corning low volume round bottom 384-well plates (with 10 ul volumes), using a BioTek Cytatation 5 reader, with the green fluorescent protein (GFP) cube filter set (ex: 485/20, em: 528/20, gain: 50, height: 7.5). Fluorescence polarization data was evaluated on Origin 2018. The dissociation constants (Kd) were determined by using the appropriate quadratic and cubic equations inserted as a user-defined function and applying nonlinear fit until convergence. The fitting formulae are shown at Supplementary note 1. Kd ratio distributions for Fig. 6 were calculated using a Monte-Carlo approach (Supplementary note 2).
Supplementary note 1. Curve fitting of fluorescence polarization (FP) measurements.
To evaluate polarization values from direct and competitive titrations, we used the following fitting formulae in Origin 2018, as detailed below.
Direct titration curves were fitted according to the following formula: […]
Where Imin is the minimal anisotropy, Imax is the (asymptotically estimated) maximal intensity. K0 is the starting concentration of the protein, while T0 is the (fixed) concentration of the labelled peptide and Kd is the dissociation constant.
Competitive titration curves were fitted with a different formula (In addition to those defined above, constants KdT KdB B0 T0 and D0 here refer to the Kd derived from the direct titration, the unknown Kd of the analyte, the labelled peptide concentration, the competitor peptide concentration as well as the protein concentration, respectively).
The ± sign refers to two different scenarios, depending on the sign of discriminant (KdT > KdB or […]). For unknown analytes, the choice of sign is not arbitrary, as the fitting will not converge unless the appropriate formula is chosen: […]
Where A, B and C correspond to the following expressions: […]
In general, Kd refers to the equilibrium constant for the complex coming apart. Turning to `CC[C@H](C)[C@H](NC(=O)[C@H](CC(N)=O)NC(=O)[C@@H](NC(=O)[C@H](Cc1ccc(OP(=O)(O)O)cc1)NC(=O)[C@H](CCC(=O)O)NC(=O)CNC(=O)[C@@H]1CCCN1C(=O)[C@H](CO)NC(=O)[C@H](CCCCN)NC(=O)[C@@H]1CCCN1C(=O)[C@@H](N)CCC(=O)O)C(C)C)C(=O)N[C@@H](CCC(=O)O)C(=O)N[C@@H](Cc1ccccc1)C(=O)O` [p0SRev-IRS1], the Kd was determined as 8.4 ± 0.75 µM.

Compound `CSCC[C@H](NC(=O)[C@@H]1CCCN1C(=O)[C@H](CCSC)NC(=O)[C@H](Cc1ccc(OP(=O)(O)O)cc1)NC(=O)[C@H](CC(=O)O)NC(=O)CNC(=O)[C@H](CO)NC(=O)CNC(=O)[C@H](CCCCN)NC(=O)[C@H](CCCNC(=N)N)NC(=O)CN)C(=O)N[C@@H](COP(=O)(O)O)C(=O)N1CCC[C@H]1C(=O)N[C@@H](CCCCN)C(=O)N[C@@H](CO)C(=O)O` [ppIRS1] came in with an equilibrium dissociation constant (Kd) of 5.25 ± 0.3 µM. On to `CC[C@H](C)[C@H](NC(=O)[C@H](CC(N)=O)NC(=O)[C@@H](NC(=O)[C@H](Cc1ccc(OP(=O)(O)O)cc1)NC(=O)[C@H](CCC(=O)O)NC(=O)CNC(=O)[C@@H]1CCCN1C(=O)[C@H](COP(=O)(O)O)NC(=O)[C@H](CCCCN)NC(=O)[C@@H]1CCCN1C(=O)[C@@H](N)CCC(=O)O)C(C)C)C(=O)N[C@@H](CCC(=O)O)C(=O)N[C@@H](Cc1ccccc1)C(=O)O` [ppSRev-IRS1], for which the dissociation constant (Kd) stood at 0.72 ± 0.06 µM. In turn, `CSCC[C@H](NC(=O)[C@H](Cc1ccc(OP(=O)(O)O)cc1)NC(=O)[C@H](CC(=O)O)NC(=O)[C@H](CO)NC(=O)[C@H](Cc1c[nH]cn1)NC(=O)[C@H](CC(C)C)NC(=O)[C@H](CC(C)C)NC(=O)[C@H](CCCNC(=N)N)NC(=O)[C@H](CO)NC(=O)[C@@H](N)CCCNC(=N)N)C(=O)N[C@@H](CC(N)=O)C(=O)N[C@@H](CCSC)C(=O)N[C@H](C(=O)N1CCC[C@H]1C(=O)N[C@@H](CCCNC(=N)N)C(=O)N[C@@H](CCCNC(=N)N)C(=O)O)[C@@H](C)OP(=O)(O)O` [ppCD28] yielded a Kd of 5.66 ± 0.29 µM. `CSCC[C@H](NC(=O)[C@H](Cc1ccc(OP(=O)(O)O)cc1)NC(=O)[C@H](CC(=O)O)NC(=O)[C@H](CO)NC(=O)[C@H](Cc1c[nH]cn1)NC(=O)[C@H](CC(C)C)NC(=O)[C@H](CC(C)C)NC(=O)[C@H](CCCNC(=N)N)NC(=O)[C@H](CO)NC(=O)[C@@H](N)CCCNC(=N)N)C(=O)N[C@@H](CC(N)=O)C(=O)N[C@@H](CCSC)C(=O)N[C@H](C(=O)N1CCC[C@H]1C(=O)N[C@@H](CCCNC(=N)N)C(=O)N[C@@H](CCCNC(=N)N)C(=O)O)[C@@H](C)O` [p0CD28] showed a Kd of 39.7 ± 1.81 µM. Next, `CSCC[C@H](NC(=O)[C@@H]1CCCN1C(=O)[C@H](CCSC)NC(=O)[C@H](Cc1ccc(OP(=O)(O)O)cc1)NC(=O)[C@H](CC(=O)O)NC(=O)CNC(=O)[C@H](CO)NC(=O)CNC(=O)[C@H](CCCCN)NC(=O)[C@H](CCCNC(=N)N)NC(=O)CN)C(=O)N[C@@H](CO)C(=O)N1CCC[C@H]1C(=O)N[C@@H](CCCCN)C(=O)N[C@@H](CO)C(=O)O` [p0IRS1]: 255 ± 34.9 µM.
